The values that follow are results of earlier work, collected in patent US11439614B2, “Fish egg extracts, omega-3 lipid-based compositions and uses thereof” (BIOFLASH INC., priority 2017, dated 2022).

The structures appear in SMILES notation.

The series deals with ADHD symptoms.

For the compound `[Mg+2]` [magnesium], the Hyperactivity entry (200 mg daily for 6 months, 75 children with ADHD, vs conventional treatment (Starobat-Hermelin et al, 1997)) is reported as “decreased Hyperactivity”.

In the case of `O=S(=O)([O-])[O-].[Zn+2]` [zinc sulfate], where the note is “150 mg for 12 weeks alone or 55 mg for 6 weeks with a conventional drug, 440 children”, the “Help for children with ADHD” value is “could significantly help children with this condition”.
